For experiment [1], the target named is T1, melatonin ML1a receptor (Homo sapiens, UniProt P48039).
T1 construct: expressed in transfected cells; membrane homogenates
Kind of experiment: Melatonergic receptor binding, 2-[125I]-iodomelatonin, ML1a. To be noted: NIH-3T3 membranes, 0.1 nM 2-[125I]-iodomelatonin, 37° C. 1 hour. On the procedure:
(§1) Melatonergic Receptor Binding Activity
(§2) (a) TME=50 mM Tris buffer containing 12.5 mM MgCl2, and 2 mM EDTA, pH 7.4 at 37° C., with concentrated HCl.
(§3) (b) Wash buffer: 20 mM Tris base containing 2 mM MgCl2, pH 7.4 at room temperature.
(§4) (c) 10^−4 M melatonin (10^−5 M final concentration).
(d) 2-[^125I]-iodomelatonin ML1a, 0.1 nM final concentration.
(§5) 2. Membrane Homogenates: The melatonin ML1a and ML1b receptors cDNA were individually subcloned into pcDNA3 and introduced into NIH-3T3 cells using Lipofectamine. Transformed NIH-3T3 cells resistant to geneticin (G-418) were isolated, and single colonies expressing high levels of 2[^125I]-iodomelatonin binding were isolated. Cells are maintained in DMEM supplemented with 10% calf serum and G-418 (0.5 g/liter). Cells are grown to confluency in T-175 flasks, scraped using Hank's balanced salt solution, and frozen at −80° C. For preparing membrane homogenates, pellets are thawed on ice, and re-suspended in TME buffer in the presence of 10 μg/ml aprotinin and leupeptin, and 100 μM phenylmethylsulfonylfluoride. The cells were then homogenized using a dounce homogenizer, and centrifuged. The resulting pellet was re-suspended with dounce homogenizer in TME (supplemented with the above protease inhibitors) and frozen. On the day of assay, a small aliquot was thawed on ice and re-suspended in the ice cold TME (1:50-1:100 v/v) and held on ice until assayed.
(§6) 3. Incubation: 37° C. for 1 hour. Reaction is terminated by filtration. Filters were washed 3 times.
(§7) 4. References: Reppert, S. M. et al., Neuron, 13, p. 1177-1185 (1994); and Reppert, S. M. et al., Proc. Natl. Acad. Sci. USA, 92, p. 8734-8738 (1995).
(§8) The compounds of the present invention have affinity for receptors of the endogenous pineal hormone, melatonin, as determined in receptor binding assays described above in Tables I to III for the ML1a and ML1b (human) receptors. Melatonin is involved in the regulation of a variety of biological rhythms and exerts its biological effects via interaction with specific receptors. There is evidence that administration of melatonin agonists are of clinical utility in the treatment of various conditions regulated by melatonin activity. Such conditions include depression, jet-lag, work-shift syndrome, sleep disorders, glaucoma, some disorders associated with reproduction, cancer benign prostatic hyperplasia, immune disorders, and neuroendocrine disorders.

Experiment [2] concerns the target T2, melatonin ML1b receptor (Homo sapiens, UniProt P49286).
T2 construct: expressed in transfected cells; membrane homogenates
T2 sequence (P49286 1-362): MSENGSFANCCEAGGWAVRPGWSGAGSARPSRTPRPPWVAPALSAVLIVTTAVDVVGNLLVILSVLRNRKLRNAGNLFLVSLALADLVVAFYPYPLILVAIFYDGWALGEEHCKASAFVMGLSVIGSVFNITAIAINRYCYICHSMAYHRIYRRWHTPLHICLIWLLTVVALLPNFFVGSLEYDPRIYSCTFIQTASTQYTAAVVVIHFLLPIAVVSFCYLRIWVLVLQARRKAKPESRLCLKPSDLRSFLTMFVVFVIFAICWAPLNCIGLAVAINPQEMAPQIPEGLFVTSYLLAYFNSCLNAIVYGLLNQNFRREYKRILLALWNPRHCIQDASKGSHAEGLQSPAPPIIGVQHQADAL
The experiment in a line: Melatonergic receptor binding, 2-[125I]-iodomelatonin, ML1b. To be noted: NIH-3T3 membranes, 0.2 nM 2-[125I]-iodomelatonin, 37° C. 1 hour. On the procedure: as §1, §2, §3, §4
(e) 2-[^125I]-iodomelatonin ML1b, 0.2 nM final concentration.
as §5, §6, §7, §8

Where only a bound is given, the exact number is not on record here.

T1 sequence (P48039 whole entry): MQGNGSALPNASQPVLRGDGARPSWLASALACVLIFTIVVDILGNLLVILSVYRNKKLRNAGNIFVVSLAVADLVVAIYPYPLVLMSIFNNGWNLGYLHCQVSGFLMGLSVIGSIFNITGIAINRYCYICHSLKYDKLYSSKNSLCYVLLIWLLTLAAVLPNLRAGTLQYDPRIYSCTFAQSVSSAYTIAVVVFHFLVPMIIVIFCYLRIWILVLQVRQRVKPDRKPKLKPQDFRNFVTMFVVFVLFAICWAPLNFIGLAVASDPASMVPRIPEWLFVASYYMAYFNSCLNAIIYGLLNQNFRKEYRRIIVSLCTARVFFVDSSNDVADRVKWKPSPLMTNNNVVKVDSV

As a reminder, the IC50 is the point on the concentration scale where inhibition reaches its midpoint. `CCc1nc2ccc(C)c(CCCNC(=O)c3ccccc3)c2o1` [Example 45, N-[3-(2-Ethyl-6-methylbenzoxazol-7-yl)propyl]benzamide]: the IC50 in experiment [1] (Table II) and in experiment [2] (Table II) was 10 to 250 nM each time.

Take `CCCC(=O)NCCCc1cccc2nc(CCCCc3ccccc3)oc12` [Example 27, N-{3-[2-(4-Phenylbutyl)benzoxazol-7-yl]propyl}butanamide]: the IC50 in experiment [1] (Table I) was below 10 nM; in experiment [2] (Table I) it was 10 to 250 nM.

As for `Cc1nc2cccc(CCCNC(=O)C(C)C)c2o1` [Example 5, N-[3-(2-Methyl-7-benzoxazolyl)propyl]-2-methylpropanamide], the IC50 in experiment [1] (Table I) and in experiment [2] (Table I) was below 10 nM in each case.

Consider `C=Cc1cc(CCCNC(=O)C2CC2)c2oc(CC)nc2c1` [Example 72, Cyclopropyl-N-[3-(2-ethyl-5-vinylbenzoxazol-7-yl)propyl]carboxamide], for which the IC50 in experiment [1] (Table II) and in experiment [2] (Table II) was above 250 nM in each case.

Regarding `CCc1nc2ccc(-c3ccc(OC)cc3)c(CCCNC(C)=O)c2o1` [Example 52, N-{3-[2-Ethyl-6-(4-methoxyphenyl)benzoxazol-7-yl]propyl}acetamide], the IC50 was 10 to 250 nM in experiment [1] (Table II) and below 10 nM in experiment [2] (Table II).

Take `CCC(=O)NCCCc1cccc2nc(C(C)C)oc12` [Example 35, N-{3-[2-(Methylethyl)benzoxazol-7-yl]propyl}propanamide]: the IC50 in experiment [1] (Table I) and in experiment [2] (Table I) was 10 to 250 nM each time.

Consider `CCC(=O)NCCCc1cccc2nc(-c3ccccc3)oc12` [Example 20, N-[3-(2-Phenylbenzoxazol-7-yl)propyl]propanamide], for which the IC50 in experiment [1] (Table I) and in experiment [2] (Table I) was 10 to 250 nM in each case.

Turning to `CCc1nc2cc(-c3ccccc3)cc(CCCNC(=O)C3CC3)c2o1` [Example 67, Cyclopropyl-N-[3-(2-ethyl-5-phenylbenzoxazol-7-yl)propyl]carboxamide], the IC50 is 10 to 250 nM in experiment [1] (Table II) and above 250 nM in experiment [2] (Table II).

With `CCc1nc2cc(Br)cc(CCCNC(=O)OC(C)(C)C)c2o1` [Example 40], the results for the IC50 in experiment [1] (Table II) and in experiment [2] (Table II) were 10 to 250 nM and above 250 nM, respectively.

With `CC(C)C(=O)NCCCc1cccc2ncoc12` [Example 33, N-(3-Benzoxazol-7-ylpropyl)-2-methylpropanamide], the results for the IC50 in experiment [1] (Table I) and in experiment [2] (Table I) were 10 to 250 nM and below 10 nM, respectively.

For the compound `CCc1nc2ccc(-c3ccc(C(F)(F)F)cc3)c(CCCNC(=O)C3CC3)c2o1` [Example 51, Cyclopropyl-N-(3-{2-ethyl-6-[4-(trifluoromethyl)phenyl]benzoxazol-7-yl}propyl)carboxamide], the IC50 is above 250 nM in experiment [1] (Table II) and 10 to 250 nM in experiment [2] (Table II).

In the case of `CCc1nc2cc(-c3ccc(C(F)(F)F)cc3)cc(CCCNC(=O)c3ccccc3)c2o1` [Example 61, N-(3-{2-Ethyl-5-[4-(trifluoromethyl)phenyl]benzoxazol-7-yl}propyl)benzamide], the values for the IC50 in experiment [1] (Table II) and in experiment [2] (Table II) were 10 to 250 nM and above 250 nM, respectively.

For the compound `CCC(=O)NCCCc1cccc2nc(CCCCc3ccccc3)oc12` [Example 26, N-{3-[2-(4-Phenylbutyl)benzoxazol-7-yl]propyl}propanamide], the IC50 in experiment [1] (Table I) is below 10 nM; in experiment [2] (Table I) it was 10 to 250 nM.

In the case of `CCC(=O)NCCCc1cccc2ncoc12` [Example 32, N-(3-Benzoxazol-7-ylpropyl)propanamide], the IC50 is 10 to 250 nM in experiment [1] (Table I) and below 10 nM in experiment [2] (Table I).

As for “N-({(1R,2R)-2-[2-(5-Phenylbutyl)benzoxazol-7-yl]cyclopropyl}methyl)butanamide [Example 96]”, the half-maximal inhibitory concentration (IC50) in experiment [1] (Table III) and in experiment [2] (Table III) was below 10 nM each time.

Regarding `CCc1nc2ccc(-c3ccco3)c(CCCNC(C)=O)c2o1` [Example 73, N-[3-(2-Ethyl-6-(2-furyl)benzoxazol-7-yl)propyl]acetamide], the IC50 in experiment [1] (Table II) and in experiment [2] (Table II) was below 10 nM each time.

Turning to `CC(C)C(=O)NCCCc1cccc2nc(-c3ccccc3)oc12` [Example 22, 2-Methyl-N-[3-(2-phenylbenzoxazol-7-yl)propyl]propanamide], the IC50 in experiment [1] (Table I) and in experiment [2] (Table I) was 10 to 250 nM each time.

Turning to `CC(=O)NC[C@@H]1C[C@H]1c1cccc2nc(C(C)C)oc12` [Example 83, N-({(1R,2R)-2-[2-(Methylethyl)benzoxazol-7-yl]cyclopropyl}methyl)acetamide], the IC50 in experiment [1] (Table III) was 10 to 250 nM; in experiment [2] (Table III), below 10 nM.

Consider `CC(=O)NCCCc1cccc2ncoc12` [Example 31, N-(3-Benzoxazol-7-ylpropyl)acetamide], for which the IC50 in experiment [1] (Table I) and in experiment [2] (Table I) was 10 to 250 nM each time.

In the case of `CCc1nc2cc(Br)cc(CCCNC(=O)c3ccccc3)c2o1` [Example 69, N-[3-(5-Bromo-2-ethylbenzoxazol-7-yl)propyl]benzamide], the 50% inhibitory concentration (IC50) in experiment [1] (Table II) and in experiment [2] (Table II) was above 250 nM in each case.

Turning to “N-({(1R,2R)-2-[2-(5-Phenylbutyl)benzoxazol-7-yl]cyclopropyl}methyl)cyclopropylcarboxamide [Example 98]”, the IC50 in experiment [1] (Table III) and in experiment [2] (Table III) was below 10 nM each time.

For the compound `O=C(NCCCc1cccc2nc(-c3ccccc3)oc12)C1CC1` [Example 23, Cyclopropyl-N-[3-(2-phenylbenzoxazol-7-yl)propyl]carboxamide], the IC50 in experiment [1] (Table I) and in experiment [2] (Table I) was 10 to 250 nM throughout.

As to `CCNC(=O)NCCCc1cccc2nc(C(C)C)oc12` [Example 39, (Ethylamino)-N-{3-[2-(methylethyl)benzoxazol-7-yl]propyl}carboxamide], the IC50 in experiment [1] (Table I) is above 250 nM; in experiment [2] (Table I) it was 10 to 250 nM.

On to `CCc1nc2ccc(-c3ccc(F)cc3)c(CCCNC(=O)c3ccccc3)c2o1` [Example 48, N-{3-[2-Ethyl-6-(4-fluorophenyl)benzoxazol-7-yl]propyl}benzamide], for which the IC50 was above 250 nM in experiment [1] (Table II) and 10 to 250 nM in experiment [2] (Table II).

Turning to `CCc1nc2ccc(-c3ccccc3)c(CCCNC(=O)C3CC3)c2o1` [Example 57, Cyclopropyl-N-[3-(2-ethyl-6-phenylbenzoxazol-7-yl)propyl]carboxamide], the IC50 in experiment [1] (Table II) is 10 to 250 nM; in experiment [2] (Table II), below 10 nM.

For “N-({(1R,2R)-2-[2-(Methylethyl)benzoxazol-7-yl]cyclopropyl}methyl)-3-methylbutanamide [Example 89]”, the IC50 in experiment [1] (Table III) and in experiment [2] (Table III) was below 10 nM throughout.

With `CCc1nc2cc(-c3ccccc3)cc(CCCNC(=O)c3ccccc3)c2o1` [Example 66, N-[3-(2-Ethyl-5-phenylbenzoxazol-7-yl)propyl]benzamide], the IC50 in experiment [1] (Table II) and in experiment [2] (Table II) was above 250 nM in each case.

Take `CCCC(=O)NCCCc1cccc2nc(C)oc12` [Example 3, N-[3-(2-Methyl-7-benzoxazolyl)propyl]butanamide]: the IC50 in experiment [1] (Table I) and in experiment [2] (Table I) was below 10 nM each time.

For the compound `CCc1nc2ccc(-c3ccco3)c(CCCNC(=O)C3CC3)c2o1` [Example 75, Cyclopropyl-N-[3-(2-ethyl-6-(2-furyl)benzoxazol-7-yl)propyl]carboxamide], the values for the half-maximal inhibitory concentration (IC50) in experiment [1] (Table II) and in experiment [2] (Table II) were 10 to 250 nM and below 10 nM, respectively.

`CC(=O)NCCCc1cccc2nc(C(C)C)oc12` [Example 34, N-{3-[2-(Methylethyl)benzoxazol-7-yl]propyl}acetamide]: the IC50 in experiment [1] (Table I) and in experiment [2] (Table I) was 10 to 250 nM each time.

As for `CCCc1nc2cccc(CCCNC(=O)CC)c2o1` [Example 14, N-[3-(2-Propylbenzoxazol-7-yl)propyl]propanamide], the IC50 in experiment [1] (Table I) and in experiment [2] (Table I) was 10 to 250 nM each time.

(Values after patent US6737431B2 (Bristol-Myers Squibb Company, priority 2002, dated 2004).)
